Source: PubChem BioAssay (NCI)
Values joined by “and” are separate entries in the source; they are usually repeats but may differ in a detail not shown here. Equal values may be shown once.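 A five-concentration, 48-hour dose response in 96-well plates underlies each endpoint, interpolated linearly between surrounding concentrations. GI50 is the concentration that inhibits growth by half. TGI marks complete inhibition of growth.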

Columns and labels:
Test in all cases: inhibition of tumour cell growth, NCI panel, 48 h
RPMI-8226 leukemia = tested on: RPMI-8226 leukemia
A498 renal = tested on: A498 renal
MDA-MB-435 = tested on: MDA-MB-435
RXF 393 renal = tested on: RXF 393 renal
CAKI-1 renal = tested on: CAKI-1 renal
HCT-15 colon = tested on: HCT-15 colon
HL-60(TB) leukemia = tested on: HL-60(TB) leukemia
OVCAR-5 ovarian = tested on: OVCAR-5 ovarian
NCI/ADR-RES ovarian = tested on: NCI/ADR-RES ovarian
PC-3 prostate = tested on: PC-3 prostate

Compound | GI50 (RPMI-8226 leukemia) | TGI (RPMI-8226 leukemia) | GI50 (A498 renal) | TGI (A498 renal) | GI50 (MDA-MB-435) | TGI (MDA-MB-435) | GI50 (RXF 393 renal) | TGI (RXF 393 renal) | GI50 (CAKI-1 renal) | TGI (CAKI-1 renal) | GI50 (HCT-15 colon) | TGI (HCT-15 colon) | GI50 (HL-60(TB) leukemia) | TGI (HL-60(TB) leukemia) | GI50 (OVCAR-5 ovarian) | TGI (OVCAR-5 ovarian) | GI50 (NCI/ADR-RES ovarian) | TGI (NCI/ADR-RES ovarian) | GI50 (PC-3 prostate) | TGI (PC-3 prostate)
O=C(O)CN(CCN(CC(=O)O)CC(=O)O)CC(=O)O.[Mn+2] | > 100 µM | > 100 µM | > 100 µM | > 100 µM | > 100 µM | > 100 µM | > 100 µM | > 100 µM | > 100 µM | > 100 µM | > 100 µM | > 100 µM | > 100 µM | > 100 µM | > 100 µM | > 100 µM | > 100 µM | > 100 µM | > 100 µM | > 100 µM
CN(C)c1ccc(-c2cc(-c3ccc(Nc4nc(Nc5ccc(Cl)cc5)nc(Nc5ccc(Cl)cc5)n4)cc3)nc(N)c2C#N)cc1 | 0.864 µM | 53.8 µM | 6.41 µM | > 100 µM | 27.9 µM | > 100 µM | 1.96 µM | 6.77 µM | > 100 µM | > 100 µM | 3.7 µM | > 100 µM | 10.6 µM | > 100 µM | > 100 µM | > 100 µM | > 100 µM | > 100 µM | 1.53 µM | 7.44 µM
CCCCCCCCCCCC[C@@H](O)[C@H]1CC[C@H]([C@H](O)CC[C@H](O)[C@@H]2CC[C@@H](CCCCCCCC3=C[C@H](C)OC3=O)O2)O1 | 2.45 µM | > 50 µM | – | > 50 µM | 1.49 µM | > 50 µM | – | > 50 µM | – | > 50 µM | 5.07 µM | > 50 µM | > 50 µM | 5.85 µM and > 50 µM | – | > 50 µM | 2.12 µM | > 50 µM | 3.3 µM | > 50 µM
CCCCCC/C=C\CCCCCCCCC(=O)c1cccc(OC)c1OC | – | > 100 µM | – | > 100 µM | – | > 100 µM | – | 68.3 µM | – | > 100 µM | – | > 100 µM | – | 69.9 µM | – | > 100 µM | – | > 100 µM | – | > 100 µM
Cn1c(=O)c2nc3sc4c(n3c2n(C)c1=O)C(=O)c1ccccc1C4=O | – | > 83.4 µM | – | > 100 µM | – | > 76 µM | – | > 55.3 µM | – | > 100 µM | – | > 86.5 µM | – | 45.3 µM | – | > 100 µM | – | 87.3 µM | – | > 76.1 µM
CCCCCC(=O)O[C@]1(C(C)=O)CCC2C3CCC4=CC(=O)CC[C@]4(C)C3CC[C@@]21C (stereo partly specified) | 1.42 µM | 4.82 µM | 1.3 µM | 3.88 µM | 3.25 µM | 13.1 µM | 1.81 µM | 4.47 µM | 1.75 µM | 8.22 µM | 3.22 µM | 12.6 µM | 2.25 µM | 4.7 µM | 5.04 µM | 22.3 µM | 2.11 µM | 8.42 µM | 1.64 µM | 8.52 µM
CCCCS(=O)c1sc2nc(-c3cccs3)cc(-c3ccccc3)c2c1N (stereo unspecified) | 3.59 µM | 23.7 µM | 8.02 µM | 76.9 µM | 17.3 µM | 99.7 µM | 10.6 µM | 58 µM | 10.3 µM | > 100 µM | 9.02 µM | > 100 µM | 14.5 µM | > 85.5 µM | 24.7 µM | > 88.9 µM | 6.42 µM | > 100 µM | 3.45 µM | > 86.6 µM
COc1cc2nnc3c4cccnc4[nH]c3c2cc1OC | 1.45 µM and 0.187 µM | – | 9.26 µM and 2.74 µM | 26.2 µM and 12.4 µM | 5.66 µM and 2.23 µM | 38.7 µM and 6.96 µM | 1.17 µM and 0.707 µM | – | 1.17 µM and 0.184 µM | – | 2.3 µM and 1.43 µM | – | 0.111 µM | 50 µM | 7.26 µM and 2.53 µM | 50 µM and 7.24 µM | 2.19 µM | 50 µM | – | 50 µM and > 100 µM
Cc1cc(Br)c(NC(=O)c2c(-c3c(Cl)cccc3Cl)noc2C)c(Br)c1 | > 100 µM | > 100 µM | > 100 µM | > 100 µM | > 100 µM | > 100 µM | 71.9 µM | > 100 µM | 7.81 µM | > 100 µM | > 100 µM | > 100 µM | > 100 µM | > 100 µM | > 100 µM | > 100 µM | > 100 µM | > 100 µM | > 100 µM | > 100 µM
NC(N)=NCCCC(NCc1c2ccccc2nc2ccccc12)C(=O)O (stereo unspecified) | – | > 53.3 µM | – | > 100 µM | – | > 100 µM | – | > 100 µM | – | > 100 µM | – | > 100 µM | – | 44.1 µM | – | > 100 µM | – | > 100 µM | – | > 100 µM
CCc1ccc(Nc2cc(C)c3ccc(O)cc3n2)cc1 | 3.19 µM | 20.2 µM | 16.6 µM | 30.6 µM | 6.94 µM | 20.3 µM | 4.08 µM | 17.1 µM | 4.92 µM | 19 µM | 2.95 µM | 12.8 µM | 3.32 µM | 12.5 µM | 8.49 µM | 21.3 µM | 6.44 µM | > 100 µM | 4.79 µM | 18.5 µM
